Where a SMILES comes first, the peptide text is derived from it. [ ]: non-standard residue; d: D form. NMeY = CN[C@@H](Cc1ccc(O)cc1)C(=O)O; dNMeF = CN[C@H](Cc1ccccc1)C(=O)O; Sar = CNCC(=O)O
Legend:
[1] = test system: Plasmodium falciparum; experiment: Antimalarial activity against Plasmodium falciparum K1 by [3H]hypoxanthine uptake; assay type: functional, organism-based
[2] = test system: Vero; experiment: Cytotoxicity against african green monkey Vero cells; assay type: cell-based; settings: Chlorocebus sabaeus

IC50 [1] | SMILES | IC50 [2]
0.006 µM | C[C@H]1[C@@H](O)O[C@@H]2O[C@@]3(C)CC[C@H]4[C@H](C)CC[C@@H]1[C@@]24OO3 [ARTENIMOL] | –
5.35 µM | CC[C@H](C)[C@@H]1NC(=O)[C@H](Cc2ccc(O)cc2)N(C)C(=O)[C@H](Cc2ccccc2)NC(=O)CN(C)C(=O)[C@@H]2CCCN2C(=O)[C@@H](Cc2ccccc2)N(C)C(=O)[C@H](CC(C)C)NC1=O [CORDYHEPTAPEPTIDE A] (cyclo(F[NMeY]IL[dNMeF]P[Sar])) | > 56.9 µM
– | Cc1c2ccncc2c(C)c2c1[nH]c1ccccc12 [ELLIPTECINE] | 2.44 µM
